Legend:
uterus = system: uterus; set-up: species or system rat (female Sprague Dawley, ovariectomized); details: rat, in vivo, po, 0.1 mg/kg/day
Experimental: (§1) In the examples illustrating the methods, a postmenopausal model was used in which effects of different treatments upon circulating lipids were determined.
(§2) Seventy-five day old female Sprague Dawley rats (weight range of 200 to 225 g) were obtained from Charles River Laboratories (Portage, Mich.). The animals were either bilaterally ovariectomized (OVX) or exposed to a sham surgical procedure at Charles River Laboratories, and then shipped after one week. Upon arrival, they were housed in metal hanging cages in groups of 3 or 4 per cage and had ad libitum access to food (calcium content approximately 0.5%) and water for one week. Room temperature was maintained at 22.2°±1.70° C. with a minimum relative humidity of 40%. The photoperiod in the room was 12 hours light and 12 hours dark.
Dosing Regimen Tissue Collection. After a one week acclimation period (therefore, two weeks post-OVX) daily dosing with test compound was initiated. 17α-ethynyl estradiol or the test compound were given orally, unless otherwise stated, as a suspension in 1% carboxymethylcellulose or dissolved in 20% cyclodextrin. Animals were dosed daily for 4 days. […] The animals were then sacrificed by asphyxiation with CO2, the uterus was removed through a midline incision, and a wet uterine weight was determined. […]

Serum cholesterol = Serum cholesterol analysis in ovariectomized rats (4-day oral dosing); format: in vivo, rat (female Sprague Dawley; details: for Serum Cholest. % Dec. (decrease versus ovariectomized controls): daily for 4 days, * p < .05
Experimental: as §1, §2
Dosing Regimen Tissue Collection. After a one week acclimation period (therefore, two weeks post-OVX) daily dosing with test compound was initiated. 17α-ethynyl estradiol or the test compound were given orally, unless otherwise stated, as a suspension in 1% carboxymethylcellulose or dissolved in 20% cyclodextrin. Animals were dosed daily for 4 days. Following the dosing regimen, animals were weighed and anesthetized with a ketamine:xylazine (2:1, V:V) mixture and a blood sample was collected by cardiac puncture. The animals were then sacrificed by asphyxiation with CO2, the uterus was removed through a midline incision, and a wet uterine weight was determined.
Cholesterol Analysis. Blood samples were allowed to clot at room temperature for 2 hours, and serum was obtained following centrifugation for 10 minutes at 3000 rpm. Serum cholesterol was determined using a Boehringer Mannheim Diagnostics high performance cholesterol assay. Briefly the cholesterol was oxidized to cholest-4-en-3-one and hydrogen peroxide. The hydrogen peroxide was then reacted with phenol and 4-aminophenazone in the presence of peroxidase to produce a p-quinone imine dye, which was read spectrophotemetrically at 500 nm. Cholesterol concentration was then calculated against a standard curve.
Data presented in Table 1 below show comparative results among ovariectomized rats, rats treated with 17α-ethynyl estradiol (EE2; an orally available form of estrogen), and rats treated with certain compounds of the instant invention. […] This uterine response to estrogen is well recognized in the art.
The data presented in Table 1 below reflects the response of 5 to 6 rats per treatment.

Eosinophil peroxidase = system: Eosinophil peroxidase; set-up: species or system rat (female Sprague Dawley, ovariectomized); details: rat, in vivo
Source text: as §2
Dosing Regimen Tissue Collection. […] The animals were then sacrificed by asphyxiation with CO2, the uterus was removed through a midline incision, and a wet uterine weight was determined.
Uterine Eosinophil Peroxidase (EPO) Assay. […] Upon addition of 0.01% hydrogen peroxide and 10 mM O-phenylenediamine (final concentrations) in Tris buffer, increase in absorbance was monitored for one minute at 450 nm. […] The maximal velocity of a 15 second interval was determined over the initial, linear portion of the reaction curve.
As is expressed in the data below, estrogenicity also was assessed by evaluating the adverse response of eosinophil infiltration into the uterus. […]

femur density = test: Osteoporosis Test Procedure (femur density, ovariectomized rats); format: in vivo, rat; details: orally administered
Experimental: Following the General Preparation Procedure, infra, the rats are treated daily for 35 days (6 rats per treatment group) and sacrificed by carbon dioxide asphyxiation on the 36th day. The 35 day time period is sufficient to allow maximal reduction in bone density, measured as described herein. At the time of sacrifice, the uteri are removed, dissected free of extraneous tissue, and the fluid contents are expelled before determination of wet weight in order to confirm estrogen deficiency associated with complete ovariectomy. […] The uteri are then placed in 10% neutral buffered formalin to allow for subsequent histological analysis. The right femurs are excised and digitilized x-rays generated and analyzed by an image analysis program (NIH image) at the distal metaphysis. The proximal aspect of the tibiae from these animals are also scanned by quantitative computed tomography. In accordance with the above procedures, compounds of the instant invention and ethynyl estradiol (EE2) in 20% hydroxypropyl β-cyclodextrin are orally administered to test animals. Distal femur metaphysis and proximal tibiae data are compared to intact and ovariectomized test animals. Results are reported as percent protection relative to ovariectomy. Ovariectomy of the test animals causes a significant reduction in femur density compared to intact, vehicle treated controls. […]

[1] = 0.1 mg/kg PO, negative = increase

SMILES	uterine weight (in words) (uterus)	Serum Cholest. % Dec. (decrease versus ovariectomized controls) (Serum cholesterol; [1]) [%]	serum cholesterol (in words) (Serum cholesterol; oral, versus ovariectomized control animals, EE2 at 0.1 mg/kg/day)	Uterine Eosinophil (Vmax), eosinophil peroxidase (Eosinophil peroxidase)	eosinophil infiltration into the uterus (in words) (Eosinophil peroxidase)	loss of femur density after ovariectomy (in words) (femur density)	Serum Cholest. % Dec. (decrease versus ovariectomized controls) (Serum cholesterol; 1.0 mg/kg PO) [%]	Serum Cholest. % Dec. (decrease versus ovariectomized controls) (Serum cholesterol; 10.0 mg/kg PO) [%]
C#C[C@]1(O)CC[C@H]2[C@@H]3CCc4cc(O)ccc4[C@H]3CC[C@@]21C [EE2, 17α-ethynyl estradiol, reference compound]	substantially greater than the uterine weight of ovariectomized test animals	76.6	caused a decrease in serum cholesterol	212.4	substantial, expected increase in eosinophil infiltration	prevents this loss	–	–
CC(C)c1sc2ccccc2c1Oc1ccc(OCCN2CCCCC2)cc1.Cl [Example 4, 3-[4-[2-(1-Piperidinyl)ethoxy]phenoxy]-2-(2-propyl]benzo[b]thiophene Hydrochloride]	–	-27.6	–	–	–	–	19.2	61.6
CCCc1sc2ccccc2c1Oc1ccc(OCCN2CCCCC2)cc1.Cl [Example 7, 3-[4-[2-(1-Piperidinyl)ethoxy]phenoxy]-2-propylbenzo[b]thiophene Hydrochloride]	–	-11.1	–	–	–	–	41.2	46.6
Cl.c1ccc2c(Oc3ccc(OCCN4CCCCC4)cc3)c(C3CCCCC3)sc2c1 [Example 11, 3-[4-[2-(1-Piperidinyl)ethoxy]phenoxy]-2-cyclohexylbenzo[b]thiophene Hydrochloride]	–	55.8	–	–	–	–	58.9	50.2
